# Test results as given in PMC7248877, “Synthesis and Spectral Identification of Three Schiff Bases with a 2-(Piperazin-1-yl)-N-(thiophen-2-yl methylene)ethanamine Moiety Acting as Novel Pancreatic Lipase Inhibitors: Thermal, DFT, Antioxidant, Antibacterial, and Molecular Docking Investigations” (Molecules, 2020).
# Biological target: T1, porcine pancreatic lipase (Sus scrofa, UniProt P00591)
# T1 construct: gene PNLIP
# T1 sequence (P00591 1-450): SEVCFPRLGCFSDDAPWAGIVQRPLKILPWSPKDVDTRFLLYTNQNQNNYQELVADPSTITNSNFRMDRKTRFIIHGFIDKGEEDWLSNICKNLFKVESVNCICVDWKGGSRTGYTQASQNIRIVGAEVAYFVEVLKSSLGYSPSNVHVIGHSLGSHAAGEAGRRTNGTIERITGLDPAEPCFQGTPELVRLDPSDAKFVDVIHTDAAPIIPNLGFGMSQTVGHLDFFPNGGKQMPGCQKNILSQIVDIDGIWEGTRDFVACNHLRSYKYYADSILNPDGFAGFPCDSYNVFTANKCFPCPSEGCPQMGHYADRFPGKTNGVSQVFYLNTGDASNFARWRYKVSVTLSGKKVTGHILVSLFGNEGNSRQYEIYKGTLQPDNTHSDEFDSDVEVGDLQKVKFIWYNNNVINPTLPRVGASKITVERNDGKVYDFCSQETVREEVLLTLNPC
# Test: p-nitrophenyl butyrate hydrolysis assay, absorbance at […] nm
# Assay type: biochemical
row,IC50,SMILES
1,2240 µM,"C(=N\CCN1CCNCC1)/c1cccs1 [L2, 2-(Piperazin-1-yl)-N-(thiophen-2-ylmethylene)ethanamine]"
2,524 µM,"Brc1ccc(C=NCCN2CCNCC2)s1 [L3, N-((5-Bromothiophen-2-yl)methylene)-2-(piperazin-1-yl)ethanamine]"
3,1160 µM,"CC(=NCCN1CCNCC1)c1ccc(Cl)s1 [L1, N-(1-(5-Chlorothiophen-2-yl)ethylidene)-2-(piperazin-1-yl)ethanamine]"
